Experiments:
[1] = tested on: MDA-MB-231 breast cancer orthotopic model; assay: Breast cancer orthotopic model established with MDA-MB-231 cell line; assay type: in vivo, mouse; details: 50 mg/kg intraperitoneal
Excerpt: To further verify the anti-tumor effect of 36806 in vivo, a breast cancer orthotopic model is established by using a MDA-MB-231 cell line. […] The tumor volume measured on the body surface was reduced, and the size and wet weight of the tumor after dissection were reduced as well (FIGS. 6C-6D). […] HE staining confirmed the orthotopic lung metastasis of breast cancer (FIG. 6F). […] The above is consistent with the results of in-vitro experiments, that is, 36806 can inhibit the proliferation and metastasis of breast cancer orthotopic model.
A breast cancer orthotopic model is established by using a MDA-MB-231 cell line. 0.2 mg/kg 36806 in combination with 0.2 mg/kg DZNEP served as a combination group (the molar ratio was about 1:1), 0.2 mg/kg 36806 and 1 mg/kg DZNEP served as single-drug groups, and DMSO served as a control group.

[2] = tested on: binding of HOTAIR to the target genes; assay: CHIRP experiments, binding of HOTAIR to target genes; details: 40 nM
Excerpt: (§1) Therefore, the inhibiting effect of 36806 on HOTAIR-EZH2 is specific.

[3] = tested on: HOTAIR target genes; assay: Western blot of protein level of HOTAIR target genes; assay type: cell-based
Method: (§2) Therefore, 36806 is capable of inhibiting the binding of HOTAIR to EZH2 at low concentrations and interfering with the recruitment of PRC2 to target genes, to relieve the target genes from silent suppression of histone methylation, thereby altering the function of epigenetic regulation.
The combination index (CI) of 36806 and DZNEP was measured by CalcuSyn software. […] After the transfection of EZH2 interfering RNA, combined with 36806 treatment, the transcription level of HOTAIR's target genes was higher (FIG. 7C). […] When used in combination with low-dose 36806, the dosage of DZNEP can be reduced by ⅘ (FIG. 7D).

[4] = tested on: multiple tumor cell lines; details: glioblastoma (U87-MG, LN229, primary N33), breast cancer (MDA-MB-231, MCF-7), HeLa, A375, SGC-7901, MGC-803, HepG2, PC9 cell lines
Method: Toxicity tests were then performed in multiple tumor cell lines.

[5] = tested on: H3K27me3 in the promoter region of the target genes; assay: CHIP experiments, H3K27me3 and RNA polymerase II in promoter region of target genes; assay type: cell-based
Excerpt: FIG. 3F: Chromatin immunoprecipitation (CHIP) experiments verified that 36806 affected the recruitment of PRC2 by HOTAIR after hindering the binding of HOTAIR to EZH2, such that the level of H3K27me3 in the promoter region of the target genes was reduced and the target genes were transcriptionally activated.
FIG. 5A: The Site1 region before the transcription initiation of APC2 is a transcription promoter region of APC2 and a binding region of H3K27me3.
FIG. 5B: After the treatment with 36806, the binding of H3K27me3 in Site1 region was weakened, and the binding of RNA polymerase II was strengthened.
as §1
(§3) Among the three predicted H3K27me3 binding sites in the promoter region of the target gene adenomatous polyposis coli 2 (APC2), sitel is a significant binding region of H3K27me3 (FIG. 5A). After the treatment with 36806, the binding of H3K27me3 in sitel region was weakened, and the binding of RNA polymerase II was strengthened (FIGS. 5B and 5C). […] APC2 is a tumor suppressor gene that can participate in the degradation of beta-catenin by ubiquitination and can inhibit the WNT signal path. The increased expression of APC2 can boost the degradation of beta-catenin. The nucleus-cytoplasm distribution of beta-catenin of cells in the treated group was decreased compared with that of the DMSO group (FIGS. 5D-5F). In this way, the downstream transcription of beta-catenin is inhibited, the expression of downstream EMT-related gene of multiple tumor cell lines is inhibited, and the protein expression is reduced (FIGS. 5G). Therefore, the invasion of tumor cells is weakened (FIG. 5H). Therefore, 36806 can inhibits the WNT signal path, reverses tumor EMT, and reduces tumor invasion and metastasis by increasing the expression level of target gene APC2.

[6] = tested on: HOTAIR target genes; assay: qPCR RNA level of HOTAIR target genes in tumor cell lines; assay type: cell-based
Method: FIG. 2B: The variations in RNA level of a target gene 48 h after treating with 40 nM of 36806 in multiple tumor cell lines.
FIG. 4A: RNA levels change of target genes in glioma and breast cancer cell lines after treating with 40 uM of 36806 for 48 hours.
FIG. 4C: RNA levels change of target genes after treating with low-dose 36806 concentration gradient for 48 hours.
as §2

[7] = tested on: glioblastoma, breast cancer, melanoma and gastric cancer cell lines; assay: Transwell invasion assay; assay type: cell-based; details: low-dose 40 nM (FIG. 5H)
Excerpt: as §3

[8] = tested on: beta-catenin; assay: Immunofluorescence and WB of beta-catenin and downstream EMT-related genes; assay type: cell-based
Excerpt: as §3

[9] = 40 uM, 48 hours, glioma and breast cancer cell lines
[10] = low concentration gradient of 10 nM to 10 uM, 48 hours

SMILES: CC(C)NCC1Cc2cc(Cl)cc(Cl)c2O1 (stereo not drawn) [compound 36806, N-[(5,7-dichloro-2,3-dihydro-1-benzofuran-2-yl)methyl]propan-2-amine]
- expression of APC2 (immunofluorescence of tissue sections) [1]: increased
- expression of beta-catenin (immunofluorescence of tissue sections) [1]: decreased
- expression of target genes HOXD10 and PCDH10 (immunofluorescence of tissue sections) [1]: increased
- tumor size (bioluminescence imaging) ([1]; 20 days and 40 days, vs DMSO group): significantly reduced
- size and wet weight of the tumor after dissection ([1]; vs DMSO group): reduced
- tumor volume measured on the body surface ([1]; vs DMSO group): reduced
- probability and scope of lung metastasis ([1]; organ imaging): smaller
- binding of HOTAIR to the target genes (CHIRP) [2]: without affecting
- protein level of HOTAIR's target genes HOXD10, PCDH10, PCDHB5, NLK, APC2 [3, 9]: increase
- protein level of the target genes, time gradient ([3]; 40 uM, time gradient): changed
- protein level of the target genes [3, 10]: increased
- IC50 of 36806 [4]: low
- level of H3K27me3 in the promoter region of the target genes (CHIP) [5]: reduced
- binding of H3K27me3 in site1 region of APC2 promoter ([5]; after treatment with 36806): weakened
- binding of RNA polymerase II in site1 region of APC2 promoter ([5]; after treatment with 36806): strengthened
- mRNA level of HOTAIR's target genes HOXD10, PCDH10, PCDHB5, NLK, APC2 [6, 9]: increase
- expression level of HOTAIR target genes ([6]; RNA level, 40 nM, 48 h, multiple tumor cell lines): up-regulate
- RNA level of the target genes [6, 10]: increased
- invasion of tumor cells [7]: weakened
- nucleus-cytoplasm distribution of beta-catenin ([8]; compared with DMSO group): decreased
- protein expression of downstream EMT-related genes ([8]; multiple tumor cell lines): reduced

Source: US11484522B2, “Composite formulation and use thereof for preparing drugs for the treatment of tumours” (TIANJIN MEDICAL UNIVERSITY GENERAL HOSPITAL, priority 2018, dated 2022)
